Data on 4 molecules can be found in patent US20260001928A1 (CORTERIA PHARMACEUTICALS, priority 2022, published 2026).

One assay deals with T1, CFR1R receptor (Homo sapiens, UniProt P34998).
T1 construct: host or cells: CHO-K1 (clone 2)
T1 sequence (P34998 24-415): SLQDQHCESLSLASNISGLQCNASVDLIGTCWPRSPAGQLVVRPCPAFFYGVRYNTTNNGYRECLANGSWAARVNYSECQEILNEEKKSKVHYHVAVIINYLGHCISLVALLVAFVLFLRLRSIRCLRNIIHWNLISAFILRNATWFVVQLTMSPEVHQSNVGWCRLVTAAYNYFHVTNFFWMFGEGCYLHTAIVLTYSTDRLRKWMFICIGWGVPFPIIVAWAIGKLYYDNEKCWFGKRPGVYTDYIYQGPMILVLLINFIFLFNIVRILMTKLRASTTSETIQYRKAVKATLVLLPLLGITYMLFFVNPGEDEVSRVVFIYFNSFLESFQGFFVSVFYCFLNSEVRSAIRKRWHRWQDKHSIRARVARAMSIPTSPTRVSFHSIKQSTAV
As to the kind of experiment: Activity at anti-target CFR1R receptor, cAMP assay in CRF1R-overexpression CHO-K1 cells. Format: cell-based. Conditions: 100% = Sauvagine at 100 nM; for EC50: cAMP. The method, boiled down:
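Run as for the TeloHAEC line, except the full-activation control well received Sauvagine (100 nM) and final density was 4000 cells/well. Cells from clone 2 came from frozen aliquots of near-confluent cultures.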
On the technique in general: Changes in cAMP serve as a functional read-out for many G protein-coupled receptors.

The target in a further assay is T2, human CRF2a receptor (Homo sapiens, UniProt Q13324).
T2 construct: expressed in transfected cells; host or cells: TeloHEAC cells
T2 sequence (Q13324 1-411): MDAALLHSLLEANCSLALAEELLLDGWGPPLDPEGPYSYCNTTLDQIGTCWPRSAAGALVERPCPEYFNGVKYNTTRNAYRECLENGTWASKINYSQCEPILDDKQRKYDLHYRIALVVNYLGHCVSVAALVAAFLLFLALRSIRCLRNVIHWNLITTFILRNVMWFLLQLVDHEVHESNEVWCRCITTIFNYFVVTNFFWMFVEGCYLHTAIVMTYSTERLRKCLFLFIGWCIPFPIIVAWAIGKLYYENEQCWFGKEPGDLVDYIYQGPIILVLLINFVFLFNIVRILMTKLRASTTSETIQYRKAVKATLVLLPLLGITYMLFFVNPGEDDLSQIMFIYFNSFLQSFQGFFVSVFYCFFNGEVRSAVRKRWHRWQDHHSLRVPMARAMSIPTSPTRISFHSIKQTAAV
The assay is described as follows: Activity at human CRF2a receptor, cAMP functional assay in TeloHEAC cells. Conditions: TeloHEAC cells stably expressing human CRF2a receptor, relative to urocortin 2 (100 nM = 100%). The class given is cell-based. The essentials: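 TeloHEAC cells stably expressing human CRF2a (10000 cells/well, suspended in HBSS/20 mM HEPES with 2 mM IBMX) were exposed to compounds for 30 min at 37 °C. cAMP was read as the 665/620 nm fluorescence ratio after 1 h at room temperature. EC50 was derived relative to 100 nM urocortin 2, set as 100%.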

*1 amine or outer side, *2 acyl side, *3 side chain or, on linkers, in order; H or OH if unused. Where a SMILES comes first, the peptide text is derived from it. Side-chain parts run from the residue outwards. [ ]: non-standard residue; d: D form. The star is where a group is joined. C18 diacid = O=C(O)CCCCCCCCCCCCCCCCC(=O)*; C16 diacid = O=C(O)CCCCCCCCCCCCCCC(=O)*; γGlu = O=C(O)[C@H](CCC(=O)[*:2])N[*:1]; NMeI = CC[C@H](C)[C@H](NC)C(=O)O; Ac6c = NC1(C(=O)O)CCCCC1; Dap = NC[C@H](N)C(=O)O; AEEA = NCCOCCOCC(=O)O Where only a bound is given, the exact number is not on record here.

As for `CC[C@H](C)[C@H](NC(C)=O)C(=O)N[C@H](C(=O)N[C@@H](CC(C)C)C(=O)N[C@@H](CO)C(=O)N[C@@H](CC(C)C)C(=O)N[C@@H](CC(=O)O)C(=O)N[C@@H](C(=O)N1CCC[C@H]1C(=O)N[C@H](C(=O)N[C@@H](CCCCN)C(=O)N[C@@H](CC(C)C)C(=O)N[C@@H](CCCCNC(=O)CC[C@H](NC(=O)CCCCCCCCCCCCCCC(=O)O)C(=O)O)C(=O)N[C@@H](CCCCN)C(=O)N[C@H](C(=O)N[C@@H](CC(C)C)C(=O)N[C@@H](CC(C)C)C(=O)N[C@@H](CCC(=O)O)C(=O)N[C@@H](CCC(N)=O)C(=O)N[C@@H](CCC(=O)O)C(=O)N[C@@H](CCCCN)C(=O)N[C@@H](CCC(N)=O)C(=O)N[C@@H](CCCCN)C(=O)N[C@@H](CCCCN)C(=O)N[C@@H](CCC(N)=O)C(=O)N[C@@H](CCCNC(=N)N)C(=O)N[C@@H](CCC(=O)O)C(=O)N[C@@H](CCC(N)=O)C(=O)N[C@@H](C)C(=O)N[C@@H](CCC(=O)O)C(=O)N[C@H](C(=O)N[C@@H](CC(N)=O)C(=O)NC1(C(=O)N[C@@H](CCC(N)=O)C(=O)N[C@H](C(=O)N[C@@H](CC(C)C)C(=O)N[C@@H](C)C(=O)N[C@@H](CCC(N)=O)C(=O)N[C@H](C(N)=O)C(C)C)[C@@H](C)CC)CCCCC1)[C@@H](C)O)[C@@H](C)CC)[C@@H](C)CC)C(C)C)C(C)C` [compound 59] (Ac-IVLSLD[dV]PIKLK([γGlu-C16 diacid])KILLEQEKQKKQREQAETN[Ac6c]QILAQV-NH2), the “Emax (% I)” value on CFR1R receptor was found to be 9 % I. Moreover, the half-maximal effective concentration (EC50) – broadly, the concentration giving half of the maximal effect – is more than 250 nM at CFR1R receptor and 0.81 nM on human CRF2a receptor.

Turning to `CC[C@H](C)[C@H](NC(C)=O)C(=O)N[C@H](C(=O)N[C@@H](CC(C)C)C(=O)N[C@@H](CO)C(=O)N[C@@H](CC(C)C)C(=O)N[C@@H](CC(=O)O)C(=O)N[C@@H](C(=O)N1CCC[C@H]1C(=O)N[C@H](C(=O)N[C@@H](CCCCN)C(=O)N[C@@H](CC(C)C)C(=O)N[C@@H](CCCCNC(=O)CC[C@H](NC(=O)CCCCCCCCCCCCCCC(=O)O)C(=O)O)C(=O)N[C@@H](CCC(N)=O)C(=O)N[C@H](C(=O)N[C@@H](CC(C)C)C(=O)N[C@@H](CC(C)C)C(=O)N[C@@H](CCCCN)C(=O)N[C@@H](CCC(N)=O)C(=O)N[C@@H](CCC(=O)O)C(=O)N[C@@H](CCCNC(=N)N)C(=O)N[C@@H](CCC(N)=O)C(=O)N[C@@H](CCCCN)C(=O)N[C@@H](CCCCN)C(=O)N[C@@H](CCC(N)=O)C(=O)N[C@@H](CCCNC(=N)N)C(=O)N[C@@H](CCC(=O)O)C(=O)N[C@@H](CCC(N)=O)C(=O)N[C@@H](C)C(=O)N[C@@H](CCC(=O)O)C(=O)N[C@@H](CCCCN)C(=O)N[C@@H](CC(N)=O)C(=O)N[C@@H](CCC(=O)O)C(=O)N[C@@H](CCC(N)=O)C(=O)N[C@H](C(=O)N[C@@H](CC(C)C)C(=O)N[C@@H](CCC(=O)O)C(=O)N[C@@H](CCC(N)=O)C(=O)N[C@H](C(N)=O)C(C)C)[C@@H](C)CC)[C@@H](C)CC)[C@@H](C)CC)C(C)C)C(C)C` [compound 17] (Ac-IVLSLD[dV]PIKLK([γGlu-C16 diacid])QILLKQERQKKQREQAEKNEQILEQV-NH2), the “Emax (% I)” value on CFR1R receptor is given as 12 % I. Moreover, the EC50 at CFR1R receptor is more than 250 nM; at human CRF2a receptor it was 0.21 nM.

Take `CC[C@H](C)[C@H](NC(C)=O)C(=O)N[C@H](C(=O)N[C@@H](CC(C)C)C(=O)N[C@@H](CO)C(=O)N[C@@H](CC(C)C)C(=O)N[C@@H](CC(=O)O)C(=O)N[C@@H](C(=O)N1CCC[C@H]1C(=O)N[C@H](C(=O)N[C@@H](CCCCN)C(=O)N[C@@H](CC(C)C)C(=O)N[C@@H](CCCCNC(=O)COCCOCCNC(=O)COCCOCCNC(=O)CC[C@H](NC(=O)CCCCCCCCCCCCCCCCC(=O)O)C(=O)O)C(=O)N[C@@H](CCCCN)C(=O)N[C@H](C(=O)N[C@@H](CC(C)C)C(=O)N[C@@H](CC(C)C)C(=O)N[C@@H](CCC(=O)O)C(=O)N[C@@H](CCC(N)=O)C(=O)N[C@@H](CCC(=O)O)C(=O)N[C@@H](CCCCN)C(=O)N[C@@H](CCC(N)=O)C(=O)N[C@@H](CCCCN)C(=O)N[C@@H](CCCCN)C(=O)N[C@@H](CCC(N)=O)C(=O)N[C@@H](CCCNC(=N)N)C(=O)N[C@@H](CCC(=O)O)C(=O)N[C@@H](CCC(N)=O)C(=O)N[C@@H](C)C(=O)N[C@@H](CCC(=O)O)C(=O)N[C@H](C(=O)N[C@@H](CC(N)=O)C(=O)N[C@@H](CN)C(=O)N[C@@H](CCC(N)=O)C(=O)N[C@H](C(=O)N[C@@H](CC(C)C)C(=O)N[C@@H](C)C(=O)N[C@@H](CCC(N)=O)C(=O)N[C@H](C(N)=O)C(C)C)[C@@H](C)CC)[C@@H](C)O)[C@@H](C)CC)[C@@H](C)CC)C(C)C)C(C)C` [compound 107] (Ac-IVLSLD[dV]PIKLK([AEEA-AEEA-γGlu-C18 diacid])KILLEQEKQKKQREQAETN[Dap]QILAQV-NH2): on CFR1R receptor, the “Emax (% I)” value came to 0 % I and the EC50 is more than 250 nM. The midpoint of the response at human CRF2a receptor, the EC50, lay at 1.43 nM.

Consider `CC[C@H](C)[C@H](NC)C(=O)N[C@H](C(=O)N[C@@H](CC(C)C)C(=O)N[C@@H](CO)C(=O)N[C@@H](CC(C)C)C(=O)N[C@@H](CC(=O)O)C(=O)N[C@@H](C(=O)N1CCC[C@H]1C(=O)N[C@H](C(=O)N[C@@H](CCCCN)C(=O)N[C@@H](CC(C)C)C(=O)N[C@@H](CCCCNC(=O)CC[C@H](NC(=O)CCCCCCCCCCCCCCC(=O)O)C(=O)O)C(=O)N[C@@H](CCCCN)C(=O)N[C@H](C(=O)N[C@@H](CC(C)C)C(=O)N[C@@H](CC(C)C)C(=O)N[C@@H](CCC(=O)O)C(=O)N[C@@H](CCC(N)=O)C(=O)N[C@@H](CCC(=O)O)C(=O)N[C@@H](CCCCN)C(=O)N[C@@H](CCC(N)=O)C(=O)N[C@@H](CCCCN)C(=O)N[C@@H](CCCCN)C(=O)N[C@@H](CCC(N)=O)C(=O)N[C@@H](CCCNC(=N)N)C(=O)N[C@@H](CCC(=O)O)C(=O)N[C@@H](CCC(N)=O)C(=O)N[C@@H](C)C(=O)N[C@@H](CCC(=O)O)C(=O)N[C@H](C(=O)N[C@@H](CC(N)=O)C(=O)N[C@@H](CCC(=O)O)C(=O)N[C@@H](CCC(N)=O)C(=O)N[C@H](C(=O)N[C@@H](CC(C)C)C(=O)N[C@@H](C)C(=O)N[C@@H](CCC(N)=O)C(=O)N[C@H](C(N)=O)C(C)C)[C@@H](C)CC)[C@@H](C)O)[C@@H](C)CC)[C@@H](C)CC)C(C)C)C(C)C` [compound 71] (H-[NMeI]VLSLD[dV]PIKLK([γGlu-C16 diacid])KILLEQEKQKKQREQAETNEQILAQV-NH2), for which, at CFR1R receptor, the “Emax (% I)” value is reported as −4 % I and the 50% effective concentration (EC50) is more than 250 nM. The same molecule yielded an EC50 on human CRF2a receptor of 0.21 nM.
